The results in this text go back to ChEMBL document CHEMBL5096191 (J Med Chem, 2021).

Common to all, as to format: functional, cell-based
Assay [1] concerns Cannabinoid receptor 2 (Homo sapiens), P34972 [A282M]. The experiment in a line: Partial agonist activity at CBR2 A2827.36M mutant (unknown origin) expressed in HEK293T assessed as increase in ERK1/2 phosphorylation incubated for 7 mins by AlphaScreenSureFire method relative to control. As to conditions: filed as partial agonist.
Assay [2] deals with Cannabinoid receptor 2 (Homo sapiens), P34972 [S285L]. The assay can be described thus: Partial agonist activity at CBR2 S2857.39L mutant (unknown origin) expressed in HEK293T assessed as increase in ERK1/2 phosphorylation incubated for 7 mins in presence of cannabidiol by AlphaScreenSureFire method relative to control. As to conditions: filed as partial agonist.
Chain of Cannabinoid receptor 2 (Homo sapiens), P34972 [S285L] (P34972 whole entry S285L): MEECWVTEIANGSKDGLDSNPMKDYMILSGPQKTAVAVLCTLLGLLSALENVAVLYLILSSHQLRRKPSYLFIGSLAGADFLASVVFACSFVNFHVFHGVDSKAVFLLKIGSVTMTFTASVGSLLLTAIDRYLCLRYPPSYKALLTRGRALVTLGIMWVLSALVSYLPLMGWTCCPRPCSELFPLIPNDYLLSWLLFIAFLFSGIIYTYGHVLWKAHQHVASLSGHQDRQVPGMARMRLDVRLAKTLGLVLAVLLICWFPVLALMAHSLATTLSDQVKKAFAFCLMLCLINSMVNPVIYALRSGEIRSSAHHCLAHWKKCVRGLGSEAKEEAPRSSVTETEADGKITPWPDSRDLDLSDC
The subject of assay [3] is Cannabinoid receptor 2 (Homo sapiens), P34972 [V113M]. The assay can be described thus: Partial agonist activity at CBR2 V1133.32M mutant (unknown origin) stably expressed in HEK293T assessed as decrease in forskolin induced cAMP level preincubated for 15 mins followed by forskolin addition incubated for 15 mins by HTRF assay relative to control. As to conditions: filed as partial agonist, time 30.0 min. (Cyclic AMP is a second messenger, typically raised through Gs and lowered through Gi signalling.)

Assay [4] addresses Cannabinoid receptor 2 (Homo sapiens, UniProt P34972). The experiment in a line: Partial agonist activity at wild type CB2 receptor (unknown origin) stably expressed in HEK293T assessed as decrease in forskolin induced cAMP level preincubated for 15 mins followed by forskolin addition incubated for 15 mins by HTRF assay relative to control. The conditions noted are these: filed as partial agonist, time 30.0 min.

Assay [5] addresses Cannabinoid receptor 2 (Homo sapiens, UniProt P34972, V36M). The experiment in a line: Partial agonist activity at CBR2 V361.35M mutant (unknown origin) stably expressed in HEK293T assessed as decrease in forskolin induced cAMP level preincubated for 15 mins followed by forskolin addition incubated for 15 mins in presence of cannabidiol by HTRF assay.
Assay [6] addresses Cannabinoid receptor 2 (Homo sapiens, UniProt P34972, A282M). The assay can be described thus: Partial agonist activity at CBR2 A2827.36M mutant (unknown origin) expressed in HEK293T assessed as increase in ERK1/2 phosphorylation incubated for 7 mins by AlphaScreenSureFire method.

pEC50: −log10 of the molar value.

Chain of Cannabinoid receptor 2 (Homo sapiens), P34972 [A282M] (P34972 whole entry A282M): as the sequence (P34972 whole entry S285L) above, with A282M, L285S counted along it
Chain of Cannabinoid receptor 2 (Homo sapiens, UniProt P34972, A282M) (P34972 whole entry A282M): as the sequence (P34972 whole entry S285L) above, with A282M, L285S counted along it
Chain of Cannabinoid receptor 2 (Homo sapiens, UniProt P34972, V36M) (P34972 whole entry V36M): as the sequence (P34972 whole entry S285L) above, with V36M, L285S counted along it
Chain of Cannabinoid receptor 2 (Homo sapiens), P34972 [V113M] (P34972 whole entry V113M): as the sequence (P34972 whole entry S285L) above, with V113M, L285S counted along it
Chain of Cannabinoid receptor 2 (Homo sapiens, UniProt P34972) (P34972 whole entry): as the sequence (P34972 whole entry S285L) above, with L285S counted along it

For orientation: Emax means the size of the effect at its maximum, as opposed to the concentration needed. A word on the pEC50: it is −log10 of the EC50, conventionally taken in molar units. `CCCC(C)(C)c1cc(O)c2c(c1)OC(C)(C)[C@@H]1CC=C(C)C[C@@H]21`: the Emax in assay [1] came to 376%; in assay [2], 291%; in assay [3], 72.5%; in assay [4] it was 46%. For the same molecule, the pEC50 is 7.80 in assay [5] and 7.70 in assay [6].
